Measured values: patent US20090082435A1, “Methods, Compositions, And Compounds For Modulation Of Monoacylglycerol Lipase, Pain, And Stress-Related Disorders” (The Regents of the University of California, priority 2005, published 2009)

Legend:
[1] = tested on: tail-flick latencies in rats; assay: tail-flick test without stressor: basal thresholds, agonist antinociception; format: in vivo, rat; settings: for drug's own antinociceptive effects after repeated daily injections: prior to foot shock, WIN55,212-2 14 days, morphine 7 days; for basal nociceptive threshold (tail-flick latencies) in absence of stressor: same doses and routes as in stress analgesia tests
[2] = tested on: stress-induced analgesia in rats; assay: non-opioid stress-induced analgesia: foot shock, then tail-flick test; format: in vivo, rat
[3] = tested on: organotypic slice cultures of rat forebrain; assay: endocannabinoid content by LC/MS in organotypic brain slice cultures; format: cell-based; settings: URB602 100 μM; for anandamide levels: URB597 1 μM
Protocol: Brain slice cultures. Brain slices were cultured from Wistar rats. Pups were sacrificed on post-natal day 5 by decapitation following cryo-anaesthesia. Brains were removed and cut (0.4 mm-thick coronal slices) using a vibratome in a bath of ice-cold high-glucose Dulbecco's Modified Eagle's Medium (Gibco). Hemispheres were placed on Millicell culture inserts (Millipore) in 6-well plates with serum-based culture medium (1.5 ml) composed of basal Eagle medium with Earle's salts (100 ml), Earle's balanced salt solution (50 ml), heat-inactivated horse serum (50 ml), L-glutamine (0.2 mM, 1 ml) and 50% glucose (2 ml) (Gibco). Slices were maintained at 37° C. with 5% CO2 for 7 days before use.
(§1) Lipid extractions and LC/MS analyses. Ex vivo experiments. Rats were habituated to the guillotine for at least 7 days prior to the experiment and sacrificed them either before or various times (2, 7, 15 and 25 min) after a 3-min foot shock (n=10 per group). The brains were rapidly removed, dissected and stored frozen (−80° C.) until lipid extraction. In vitro experiments. […] In some experiments, slices were incubated with ionomycin (2 μM) in DMEM for additional 15 min. Reactions were stopped and washed with ice-cold 50% methanol (1 ml). Slices were collected in the same medium (0.2 ml) and homogenized. Brain tissue (≈50 mg) and slice homogenates were suspended in methanol (2 ml) containing [^2H]-containing internal standards (25 pmol). Lipids were extracted in methanol-chloroform-H2O (1:2:0.25). The organic phase was recovered, evaporated to dryness, reconstituted in chloroform/methanol (1:3, 80 μL) and subjected to LC/MS analysis as described (Giuffrida, A. et al., Anal. Biochem. 280:87-93 (2000)).

native rat brain MGL = target: T1, native rat brain MGL (Rattus norvegicus, UniProt Q8R431); assay: MGL activity assay, rat brain cytosol, 2-monooleoylglycerol substrate; format: biochemical; settings: for effect on rat brain MGL activity in vitro: FIG. 3b
T1 construct: from tissue; host or cells: Wistar rat brain, cytosol fraction
T1 sequence (Q8R431 1-303): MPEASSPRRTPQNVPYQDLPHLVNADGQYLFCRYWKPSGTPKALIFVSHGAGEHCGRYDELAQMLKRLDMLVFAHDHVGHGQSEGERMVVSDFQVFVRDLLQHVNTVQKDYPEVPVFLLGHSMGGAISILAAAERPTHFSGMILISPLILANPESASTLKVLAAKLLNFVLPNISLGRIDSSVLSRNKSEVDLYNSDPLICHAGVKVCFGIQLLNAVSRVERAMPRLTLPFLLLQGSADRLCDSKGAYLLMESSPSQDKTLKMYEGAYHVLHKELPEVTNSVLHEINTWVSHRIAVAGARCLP

[4] = tested on: diacylglycerol lipase (DGL); assay: DGL activity assay, rat brain protein, [3H]dioleoylglycerol; format: biochemical
[5] = tested on: 2-AG and anandamide levels in rat brain; assay: ex vivo brain endocannabinoid levels by LC/MS after PAG microinjection and foot shock; format: in vivo
Protocol: as §1

cyclooxygenase (Cox)-2 = target: T2, cyclooxygenase (Cox)-2 (Homo sapiens, UniProt P35354); assay: cyclooxygenase assay, commercial kit with purified enzymes; format: biochemical
T2 construct: purchased Cayman Chemicals, Ann Arbor, Mich
T2 sequence (P35354 18-604): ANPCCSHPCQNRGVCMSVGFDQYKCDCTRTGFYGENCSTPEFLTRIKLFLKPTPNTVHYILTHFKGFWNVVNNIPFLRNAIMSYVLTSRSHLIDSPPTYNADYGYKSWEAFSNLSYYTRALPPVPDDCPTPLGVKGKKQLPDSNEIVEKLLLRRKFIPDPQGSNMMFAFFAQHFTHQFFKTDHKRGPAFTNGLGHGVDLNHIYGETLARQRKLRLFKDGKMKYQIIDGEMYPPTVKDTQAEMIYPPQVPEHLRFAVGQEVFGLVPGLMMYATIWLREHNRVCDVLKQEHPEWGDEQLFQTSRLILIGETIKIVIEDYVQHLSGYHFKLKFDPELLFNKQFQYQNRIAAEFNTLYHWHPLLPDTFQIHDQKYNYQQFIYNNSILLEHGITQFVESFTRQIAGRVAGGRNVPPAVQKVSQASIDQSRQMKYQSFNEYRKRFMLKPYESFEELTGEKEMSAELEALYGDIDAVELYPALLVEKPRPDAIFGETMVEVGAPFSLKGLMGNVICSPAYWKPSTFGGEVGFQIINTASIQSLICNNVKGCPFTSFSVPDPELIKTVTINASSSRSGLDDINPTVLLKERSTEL

rat brain FAAH = target: T3, rat brain FAAH (Rattus norvegicus, UniProt P97612); assay: FAAH activity assay, rat brain membranes, anandamide substrate; format: biochemical; settings: FIG. 3c
T3 construct: from tissue; host or cells: Wistar rat brain, membrane fraction
T3 sequence (P97612 1-579): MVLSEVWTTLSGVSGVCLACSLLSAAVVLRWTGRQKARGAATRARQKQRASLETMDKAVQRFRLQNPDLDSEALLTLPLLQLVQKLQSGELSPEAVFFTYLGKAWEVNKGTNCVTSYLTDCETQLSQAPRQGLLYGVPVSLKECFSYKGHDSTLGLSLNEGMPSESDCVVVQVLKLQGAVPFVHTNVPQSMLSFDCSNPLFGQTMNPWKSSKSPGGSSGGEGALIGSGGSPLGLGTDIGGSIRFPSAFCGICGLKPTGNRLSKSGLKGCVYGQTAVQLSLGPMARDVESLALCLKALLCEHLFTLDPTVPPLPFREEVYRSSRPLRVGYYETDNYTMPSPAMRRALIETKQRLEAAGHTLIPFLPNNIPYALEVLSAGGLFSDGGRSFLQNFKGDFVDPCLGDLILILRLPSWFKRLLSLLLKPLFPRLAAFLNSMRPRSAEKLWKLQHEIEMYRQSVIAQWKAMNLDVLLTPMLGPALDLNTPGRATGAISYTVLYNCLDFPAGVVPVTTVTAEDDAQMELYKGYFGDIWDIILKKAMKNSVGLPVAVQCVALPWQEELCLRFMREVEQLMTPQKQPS

PLD = assay: phospholipase D activity assay; format: biochemical, S. chromofuscus
phospholipase C (PLC) = phospholipase C (PLC) (Bacillus cereus, UniProt P09598); assay: phospholipase C activity assay; format: biochemical, B. cereus
rat cerebellar membranes = assay: [35S]-GTP-γ-S binding to rat cerebellar membranes; format: biochemical; settings: data not shown; read-out: half-maximal effective concentration (EC50), [35S]-GTP-γ-S binding
[6] = URB602 0.1 nmol in PAG, 25 min after shock

Chain of phospholipase C (PLC) (P09598 39-283 limits assumed): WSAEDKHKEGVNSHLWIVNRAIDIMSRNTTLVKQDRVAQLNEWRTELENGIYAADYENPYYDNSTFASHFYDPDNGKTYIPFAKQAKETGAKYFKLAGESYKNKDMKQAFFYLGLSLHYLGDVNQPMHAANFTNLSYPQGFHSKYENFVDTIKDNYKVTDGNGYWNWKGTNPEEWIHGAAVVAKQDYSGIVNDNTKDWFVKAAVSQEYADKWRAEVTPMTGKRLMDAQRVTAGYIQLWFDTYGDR

Question: Which results are given for `Cc1c(C(=O)c2cccc3ccccc23)c2cccc3c2n1[C@H](CN1CCOCC1)CO3` [WIN55, 212-2]?
Answer: drug's own antinociceptive effects after repeated daily injections [1]: decrease; stress-induced analgesia in rats made tolerant to the agonist ([2]; rat, in vivo): marked reduction

Question: `O=C1CC[C@@]2(O)[C@H]3Cc4ccc(O)c5c4[C@@]2(CCN3CC2CC2)[C@H]1O5` [naltrexone] was tested. Which “effect of antagonist on stress-induced analgesia, systemic” value (from here on “effect of antagonist”) ([2]; rat, in vivo, ip) did it give?
Answer: insensitive

Question: Which “basal nociceptive threshold (tail-flick latencies) in absence of stressor” value (“basal nociceptive threshold” for short) [1] does the source give for `Cc1c(C(=O)NN2CCCCC2)nn(-c2ccc(Cl)cc2Cl)c1-c1ccc(Cl)cc1` [rimonabant] here?
Answer: does not alter

Question: And the “effect of low-dose rimonabant alone on stress analgesia” value ([2]; 0.2 nmol in PAG)?
Answer: insufficient to reverse

Question: What about the “rimonabant effect on MAFP enhancement of stress analgesia” value ([2]; co-injection, rimonabant 0.2 nmol) of the same compound?
Answer: blocked

Question: And the “effect of antagonist” value ([2]; i.p., naltrexone 14 mg-kg^−1, rimonabant, AM251, SR144528 5 mg-kg^−1)?
Answer: almost abolished

Question: What about the “rimonabant effect on URB602 enhancement of stress analgesia” value ([2]; local co-administration in PAG, rimonabant 0.2 nmol) of the same compound?
Answer: prevented

Question: And the “effect on stress-induced analgesia, ventrolateral PAG” value ([2]; rimonabant 2 nmol)?
Answer: inactive

Question: And the “effect on stress-induced analgesia, dorsolateral PAG” value ([2]; rimonabant 2 nmol microinjected)?
Answer: significantly reduced

Question: What about the “rimonabant effect on URB597 potentiation of stress analgesia” value ([2]; rimonabant 1 mg-kg^−1 i.p., 0.2 nmol in the PAG) of the same compound?
Answer: prevented

Question: And the “rimonabant effect on VDM11 enhancement of stress analgesia” value ([2]; rimonabant 2 mg-kg^−1 i.p.)?
Answer: blocked

Question: And the “effect on stress-induced analgesia, lateral ventricle” value ([2]; rimonabant 2-10 nmol)?
Answer: ineffective

Question: Which “basal nociceptive threshold” value [1] does the source give for `NC(=O)c1cccc(-c2cccc(OC(=O)NC3CCCCC3)c2)c1` [URB597] here?
Answer: did not modify

Question: What about the anandamide levels [3] of the same compound?
Answer: markedly elevated

Question: What about the “effect on stress-induced analgesia, URB597 in dorsolateral PAG” value ([2]; rat, in vivo) of the same compound?
Answer: significant potentiation

Question: What about the “effect on stress-induced analgesia, URB597 systemic” value ([2]; rat, in vivo, ip) of the same compound?
Answer: significant potentiation

Question: And the “effect on rat brain MGL activity in vitro” value (native rat brain MGL)?
Answer: no effect

Question: Which “effect of antagonist” value ([2]; rat, in vivo, ip) does the source give for `Cc1c(C(=O)NN2CCCCC2)nn(-c2ccc(Cl)cc2Cl)c1-c1ccc(I)cc1` [AM251] here?
Answer: almost abolished

Question: Which “mean tail-flick latency after morphine, cannabinoid tolerant rats” value ([1]; morphine 2.5 mg-kg^−1 s.c., rats tolerant to WIN55,212-2, n=6-7) does the source give for `CN1CC[C@]23c4c5ccc(O)c4O[C@H]2[C@@H](O)C=C[C@H]3[C@H]1C5` [morphine] here?
Answer: 6.09 ± 1.93 s

Question: And the “mean tail-flick latency after morphine, control rats” value ([1]; morphine 2.5 mg-kg^−1 s.c., vehicle-treated controls, n=6-7)?
Answer: 5.33 ± 0.21 s

Question: What about the “drug's own antinociceptive effects after repeated daily injections” value [1] of the same compound?
Answer: decrease

Question: And the “stress-induced analgesia in rats made tolerant to the agonist” value ([2]; rat, in vivo)?
Answer: normal degree

Question: How did the “effect on DGL activity” value [4] turn out when `O=C(Nc1cccc(-c2ccccc2)c1)OC1CCCCC1` [URB602, biphenyl-3-yl carbamic acid cyclohexyl ester] was run?
Answer: did not affect

Question: And the “basal nociceptive threshold” value [1]?
Answer: without altering

Question: What about the “2-AG content in midbrain fragments vs untreated controls” value [5, 6] of the same compound?
Answer: significantly higher

Question: What about the “anandamide levels in midbrain vs untreated controls” value [5, 6] of the same compound?
Answer: identical

Question: And the “2-AG and anandamide concentrations in occipital cortex” value ([5]; URB602 injection into the PAG)?
Answer: not affected

Question: What about the “effect on Cox-2 activity” value (cyclooxygenase (Cox)-2) of the same compound?
Answer: did not affect

Question: What about the “effect on rat brain FAAH activity” value (rat brain FAAH) of the same compound?
Answer: does not affect

Question: And the “effect on PLD activity” value (PLD)?
Answer: did not affect

Question: And the “basal 2-AG levels” value [3]?
Answer: significantly increased

Question: And the anandamide levels [3]?
Answer: did not modify

Question: And the “2-AG accumulation elicited by ionomycin” value ([3]; ionomycin 2 μM)?
Answer: enhanced

Question: And the “effect on stress-induced analgesia, URB602 in dorsolateral PAG” value ([2]; 0.1 nmol microinjection)?
Answer: enhanced

Question: And the “effect on stress-induced analgesia, URB602 in ventrolateral PAG” value ([2]; 0.1 nmol microinjection)?
Answer: enhanced

Question: And the “effect on PLC activity” value (phospholipase C (PLC))?
Answer: did not affect

Question: What about the EC50 (rat cerebellar membranes) of the same compound?
Answer: > 100 µM

Question: And the “effect on rat brain MGL activity in vitro” value (native rat brain MGL)?
Answer: inhibits

Question: And the IC50 (native rat brain MGL; broken cell preparations, read-out: half-maximal concentration (IC50) for inhibition of MGL)?
Answer: 28 ± 4 µM

Question: What about the “mechanism of MGL inhibition” value (native rat brain MGL; kinetic analyses) of the same compound?
Answer: non-competitive

Question: What about the “Vmax of MGL with URB602” value (native rat brain MGL; n=4, without URB602 1814±51) of the same compound?
Answer: 541±20 nmol-min-mg^−1 protein
